From US10131652B2, “Pyrimidinyloxy benzene derivatives as herbicides” (E. I. DU PONT DE NEMOURS AND COMPANY, priority 2014, dated 2018)
Where two headings read alike, the source gives them in different places.

Experiments:
Experiment in all cases: Test E pre-/postemergence plant response
Assay type in all cases: in vivo
[1] = system: Italian ryegrass (Lolium multiflorum); conditions: scale 0 to 100, read-out: Plant response rating, Ryegrass, Italian; for pest or weed control at 16 g/ha: 16 g ai/ha; for pest or weed control at 31 g/ha: 31 g ai/ha; for pest or weed control at 62 g/ha: 62 g ai/ha; for pest or weed control at 125 g/ha: 125 g ai/ha
In short: (§1)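 Pre-emergence: seeds sown in silt loam soil and sprayed with test chemicals in a non-phytotoxic solvent/surfactant mix. Post-emergence: plants at 2–18 cm (1- to 4-leaf stage) in peat/vermiculite medium treated with the same formulation. Visual rating versus controls after 7–21 days, 0 (no effect) to 100 (complete control).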

[2] = system: canarygrass (Phalaris minor); conditions: scale 0 to 100, read-out: Plant response rating, Canarygrass; for pest or weed control at 16 g/ha: 16 g ai/ha; for pest or weed control at 31 g/ha: 31 g ai/ha; for pest or weed control at 62 g/ha: 62 g ai/ha; for pest or weed control at 125 g/ha: 125 g ai/ha
In short: as §1

[3] = system: chickweed (common chickweed, Stellaria media); conditions: scale 0 to 100, read-out: Plant response rating, Chickweed; for pest or weed control at 16 g/ha: 16 g ai/ha; for pest or weed control at 31 g/ha: 31 g ai/ha; for pest or weed control at 62 g/ha: 62 g ai/ha; for pest or weed control at 125 g/ha: 125 g ai/ha
In short: as §1

[4] = system: field poppy (Papaver rhoeas); conditions: scale 0 to 100, read-out: Plant response rating, Field Poppy; for pest or weed control at 16 g/ha: 16 g ai/ha; for pest or weed control at 31 g/ha: 31 g ai/ha; for pest or weed control at 62 g/ha: 62 g ai/ha; for pest or weed control at 125 g/ha: 125 g ai/ha
In short: as §1

[5] = system: kochia (Kochia scoparia); conditions: Bassia scoparia, scale 0 to 100, read-out: Plant response rating, Kochia; for pest or weed control at 16 g/ha: 16 g ai/ha; for pest or weed control at 31 g/ha: 31 g ai/ha; for pest or weed control at 62 g/ha: 62 g ai/ha; for pest or weed control at 125 g/ha: 125 g ai/ha
In short: as §1

[6] = system: pigweed (Amaranthus retroflexus); conditions: scale 0 to 100, read-out: Plant response rating, Pigweed; for pest or weed control at 16 g/ha: 16 g ai/ha; for pest or weed control at 31 g/ha: 31 g ai/ha; for pest or weed control at 62 g/ha: 62 g ai/ha; for pest or weed control at 125 g/ha: 125 g ai/ha
In short: as §1

[7] = system: spring barley (Hordeum vulgare); conditions: for plant injury at 16 g/ha: 16 g ai/ha; for plant injury at 31 g/ha: 31 g ai/ha; for plant injury at 62 g/ha: 62 g ai/ha; for plant injury at 125 g/ha: 125 g ai/ha
In short: as §1

[8] = system: spring wheat (Triticum aestivum); conditions: scale 0 to 100, read-out: Plant response rating, Wheat, Spring; for plant injury at 16 g/ha: 16 g ai/ha; for plant injury at 62 g/ha: 62 g ai/ha; for plant injury at 125 g/ha: 125 g ai/ha
In short: as §1

[9] = system: wild radish (Raphanus raphanistrum); conditions: scale 0 to 100, read-out: Plant response rating, Radish, Wild; for pest or weed control at 16 g/ha: 16 g ai/ha; for pest or weed control at 31 g/ha: 31 g ai/ha; for pest or weed control at 62 g/ha: 62 g ai/ha; for pest or weed control at 125 g/ha: 125 g ai/ha
In short: as §1

[10] = system: windgrass (Apera spica-venti); conditions: scale 0 to 100, read-out: Plant response rating, Windgrass; for pest or weed control at 16 g/ha: 16 g ai/ha; for pest or weed control at 62 g/ha: 62 g ai/ha; for pest or weed control at 125 g/ha: 125 g ai/ha
In short: as §1

[11] = system: winter wheat (Triticum aestivum); conditions: scale 0 to 100, read-out: Plant response rating, Wheat, Winter; for plant injury at 16 g/ha: 16 g ai/ha; for plant injury at 62 g/ha: 62 g ai/ha; for plant injury at 125 g/ha: 125 g ai/ha
In short: as §1

[12] = post-emergence, Postemergence, scale 0 to 100, read-out: Plant response rating, Barley, Spring
[13] = pre-emergence, Preemergence, scale 0 to 100, read-out: Plant response rating, Barley, Spring
[14] = post-emergence, 31 g ai/ha, Postemergence

Fc1cccc(Oc2ncc(Br)cn2)c1-c1cc(C(F)F)no1 [Compound 145, 5-bromo-2-[2-[3-(difluoromethyl)-5-isoxazolyl]-3-fluorophenoxy]pyrimidine]
5%: pest or weed control at 16 g/ha ([1]; post-emergence, Postemergence) | pest or weed control at 16 g/ha ([10]; post-emergence, Postemergence)
65%: pest or weed control at 125 g/ha ([2]; post-emergence, Postemergence)
30%: plant injury at 125 g/ha ([7]; post-emergence, Postemergence, scale 0 to 100 (0 no effect, 100 complete control), read-out: Plant response rating, Barley, Spring) | plant injury at 16 g/ha ([8]; post-emergence, Postemergence)
75%: pest or weed control at 31 g/ha ([2]; pre-emergence, Preemergence) | pest or weed control at 62 g/ha ([10]; pre-emergence, Preemergence) | plant injury at 125 g/ha ([11]; pre-emergence, Preemergence)
45%: plant injury at 62 g/ha [7, 13] | plant injury at 62 g/ha ([8]; post-emergence, Postemergence)
55%: plant injury at 125 g/ha ([8]; post-emergence, Postemergence) | plant injury at 125 g/ha ([11]; post-emergence, Postemergence)
25%: pest or weed control at 62 g/ha ([1]; post-emergence, Postemergence) | pest or weed control at 31 g/ha ([2]; post-emergence, Postemergence) | plant injury at 31 g/ha [7, 13] | plant injury at 62 g/ha ([11]; pre-emergence, Preemergence)
60%: pest or weed control at 16 g/ha ([5]; pre-emergence, Preemergence) | pest or weed control at 125 g/ha ([10]; post-emergence, Postemergence)
70%: pest or weed control at 125 g/ha ([1]; pre-emergence, Preemergence) | plant injury at 125 g/ha ([8]; pre-emergence, Preemergence)
20%: pest or weed control at 31 g/ha ([1]; pre-emergence, Preemergence) | plant injury at 62 g/ha [7, 12] | plant injury at 62 g/ha ([8]; pre-emergence, Preemergence) | pest or weed control at 62 g/ha ([10]; post-emergence, Postemergence) | plant injury at 31 g/ha [11, 14]
50%: pest or weed control at 62 g/ha ([1]; pre-emergence, Preemergence)
85%: pest or weed control at 31 g/ha ([3]; post-emergence, Postemergence) | pest or weed control at 62 g/ha ([9]; pre-emergence, Preemergence)
95%: pest or weed control at 125 g/ha ([3]; post-emergence, Postemergence) | pest or weed control at 16 g/ha ([9]; post-emergence, Postemergence)
80%: pest or weed control at 16 g/ha ([3]; post-emergence, Postemergence) | plant injury at 125 g/ha [7, 13]
0%: plant injury at 16 g/ha ([11]; pre-emergence, Preemergence)
10%: pest or weed control at 31 g/ha ([1]; post-emergence, Postemergence) | pest or weed control at 16 g/ha ([1]; pre-emergence, Preemergence) | pest or weed control at 31 g/ha [10, 14] | pest or weed control at 16 g/ha ([10]; pre-emergence, Preemergence)
35%: plant injury at 31 g/ha [8, 14] | plant injury at 62 g/ha ([11]; post-emergence, Postemergence)
100%: pest or weed control at 62 g/ha ([2]; pre-emergence, Preemergence) | pest or weed control at 125 g/ha ([2]; pre-emergence, Preemergence) | pest or weed control at 62 g/ha ([3]; post-emergence, Postemergence) | pest or weed control at 16 g/ha ([3]; pre-emergence, Preemergence) | pest or weed control at 31 g/ha ([3]; pre-emergence, Preemergence) | pest or weed control at 62 g/ha ([3]; pre-emergence, Preemergence) | pest or weed control at 125 g/ha ([3]; pre-emergence, Preemergence) | pest or weed control at 16 g/ha ([4]; post-emergence, Postemergence) | pest or weed control at 31 g/ha ([4]; post-emergence, Postemergence) | pest or weed control at 62 g/ha ([4]; post-emergence, Postemergence) | pest or weed control at 125 g/ha ([4]; post-emergence, Postemergence) | pest or weed control at 16 g/ha ([4]; pre-emergence, Preemergence) | pest or weed control at 31 g/ha ([4]; pre-emergence, Preemergence) | pest or weed control at 62 g/ha ([4]; pre-emergence, Preemergence) | pest or weed control at 125 g/ha ([4]; pre-emergence, Preemergence) | pest or weed control at 31 g/ha ([5]; post-emergence, Postemergence) | pest or weed control at 62 g/ha ([5]; post-emergence, Postemergence) | pest or weed control at 125 g/ha ([5]; post-emergence, Postemergence) | pest or weed control at 31 g/ha ([5]; pre-emergence, Preemergence) | pest or weed control at 62 g/ha ([5]; pre-emergence, Preemergence) | pest or weed control at 125 g/ha ([5]; pre-emergence, Preemergence) | pest or weed control at 16 g/ha ([6]; post-emergence, Postemergence) | pest or weed control at 31 g/ha ([6]; post-emergence, Postemergence) | pest or weed control at 62 g/ha ([6]; post-emergence, Postemergence) | pest or weed control at 125 g/ha ([6]; post-emergence, Postemergence) | pest or weed control at 16 g/ha ([6]; pre-emergence, Preemergence) | pest or weed control at 31 g/ha ([6]; pre-emergence, Preemergence) | pest or weed control at 62 g/ha ([6]; pre-emergence, Preemergence) | pest or weed control at 125 g/ha ([6]; pre-emergence, Preemergence) | pest or weed control at 31 g/ha ([9]; post-emergence, Postemergence) | pest or weed control at 62 g/ha ([9]; post-emergence, Postemergence) | pest or weed control at 125 g/ha ([9]; post-emergence, Postemergence) | pest or weed control at 125 g/ha ([9]; pre-emergence, Preemergence)
40%: pest or weed control at 125 g/ha ([1]; post-emergence, Postemergence) | pest or weed control at 62 g/ha ([2]; post-emergence, Postemergence) | pest or weed control at 16 g/ha ([2]; pre-emergence, Preemergence)
98%: pest or weed control at 16 g/ha ([5]; post-emergence, Postemergence) | pest or weed control at 125 g/ha ([10]; pre-emergence, Preemergence)
15%: pest or weed control at 16 g/ha ([2]; post-emergence, Postemergence) | plant injury at 16 g/ha [7, 12] | plant injury at 31 g/ha [7, 12] | plant injury at 16 g/ha [7, 13] | plant injury at 16 g/ha ([8]; pre-emergence, Preemergence) | pest or weed control at 16 g/ha ([9]; pre-emergence, Preemergence) | pest or weed control at 31 g/ha ([9]; pre-emergence, Preemergence) | plant injury at 16 g/ha ([11]; post-emergence, Postemergence)
